Target: Histone deacetylase 1 (Homo sapiens, UniProt Q13547)
Assay: HDAC1 & HDAC3 Inhibition Assay
Procedure: IC50 determination for HDAC1 and HDAC3-Prior to adding reagents, 50 nL/well of compound were added to Proxiplates using an Echo dispenser instrument (Beckman Coulter, CA, US). After addition of compound, 2.5 μL/well of 2× enzyme solution was added and the enzyme was pre-incubated with compound for 3 hours at room temp. (˜22° C.). After the pre-incubation period, the enzyme reaction was initiated by adding 2.5 μL/well of 2× Fluor de Lys substrate solution. The assay reaction was stopped after one hour by adding 5 μl/well of a 0.66× Developer solution containing TSA (3.2 μM). The final product of the enzyme reaction was read using a Spectramax plate reader instrument (Molecular Devices, CA, US) using a fluorescent readout (Ex 360 nm/Em 460 nm). The final enzyme concentrations in the assay buffer for HDAC1 and 3 were 6 and 1.2 nM, respectively. The final Fluor de Lys substrate concentration in the assay buffer was 16 μM for all HDAC enzymes. IC50 values were determined using the following equation:EfreeEo=100(1-11+(1IC50)n)(1)Where Efree and Eo are the free and total amount of HDAC enzyme in the reaction mixture, n is the hill coefficient, I is the free inhibitor concentration, and IC50 is the measure of the potency equivalent to the inhibitor concentration that leads to a 50% occupancy of the total enzyme. Each data was generated in duplicate.

Sequence of Histone deacetylase 1 (Q13547 whole entry): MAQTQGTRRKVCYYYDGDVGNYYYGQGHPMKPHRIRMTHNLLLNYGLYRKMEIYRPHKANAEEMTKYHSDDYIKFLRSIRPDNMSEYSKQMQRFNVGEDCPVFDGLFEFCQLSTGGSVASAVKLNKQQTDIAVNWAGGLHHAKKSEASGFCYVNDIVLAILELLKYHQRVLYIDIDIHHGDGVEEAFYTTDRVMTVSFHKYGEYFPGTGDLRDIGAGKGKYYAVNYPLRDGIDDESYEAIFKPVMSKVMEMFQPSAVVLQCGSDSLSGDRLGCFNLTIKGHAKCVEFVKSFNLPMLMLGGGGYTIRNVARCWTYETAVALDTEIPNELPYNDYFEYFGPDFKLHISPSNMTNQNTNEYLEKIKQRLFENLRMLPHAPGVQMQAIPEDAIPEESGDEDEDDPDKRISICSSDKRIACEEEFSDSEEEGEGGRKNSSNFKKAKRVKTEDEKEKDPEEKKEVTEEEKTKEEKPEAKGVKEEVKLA

## Nc1ccc(-c2ccc(F)cc2)cc1NC(=O)c1cc2cc(S3(=O)=NCCC3)ccc2s1 (stereo unspecified) [US20250136570, Compound 204]
  IC50: < 100 nM

## N=S(=O)(c1ccc(C(=O)Nc2cc(-c3ccc(F)cc3)ccc2N)cc1)c1ccc(Cl)cn1 (stereo unspecified) [US20250136570, Compound 213]
  IC50: < 100 nM

## Nc1ccc(-c2ccc(F)cc2)cc1NC(=O)c1ccc(S2(=O)=NCCCC2)cc1 (stereo unspecified) [US20250136570, Compound 243]
  IC50: < 100 nM

## Nc1ccc(-c2cccs2)cc1NC(=O)c1ccc(S2(=O)=NCCC2)cc1 (stereo unspecified) [US20250136570, Compound 126]
  IC50: < 100 nM

## Nc1ccc(-c2ccc(F)cc2)cc1NC(=O)c1ccc(S2(=O)=NCCC2)nc1 (stereo unspecified) [US20250136570, Compound 178]
  IC50: < 100 nM

## Nc1ccc(-c2ccc(F)s2)cc1NC(=O)c1ccc(S2(=O)=NCCC2)cc1 (stereo unspecified) [US20250136570, Compound 160]
  IC50: < 100 nM

— BindingDB's records for patent US20250136570 (Tango Therapeutics, 2025)
